According to publication PMC12036971 (2025):

Target: Akita16 HA (crystal construct) (Influenza A virus (A/black swan/Akita/1/2016(H5N6)), UniProt A0A1L7N0F8)

CC(=O)N[C@H]1[C@H](O[C@H]2[C@@H](O)[C@@H](CO)O[C@@H](O[C@H]3[C@H](O)[C@@H](O)C(O)O[C@@H]3CO)[C@@H]2O)O[C@H](CO)[C@@H](O)[C@@H]1O[C@@H]1O[C@H](CO)[C@H](O)[C@H](O[C@]2(C(=O)O)C[C@H](O)[C@@H](NC(C)=O)[C@H]([C@H](O)[C@H](O)CO)O2)[C@H]1O (stereo partly shown) [LSTa, NeuAcα2-3Galβ1-3GlcNAcβ1-3Galβ1-4Glc]
X-ray crystal structure of complex, 2.71 Å: Akita16-WT HA structure with avian-type receptor analog, LSTa
